Organism: Rattus norvegicus
Assay: Open TG-GATES - Regimen: Daily Repeat
Format: toxicity, organism-based, Sprague-Dawley
Set-up: regimen Daily Repeat, gender Male, age 6 weeks
Conditions: in vivo, iv, route intravenous injection; for APTT / Bas / Eos / Fbg / Hb / Ht / Lym / MCH / MCHC / MCV / Mono / Neu / PT / Plat / RBC / Ret / WBC: tissue Blood; for KIDNEY_L / KIDNEY_R / KIDNEY_TOTAL: tissue Kidney; for LIVER: tissue Liver; for ALP / ALT / AST / BUN / CRE / Ca / Cl / DBIL / GLC / IP / K / LDH / Na / PL / RALB / TBIL / TC / TG / TP / gamma-GTP: tissue Plasma
[1] = 0 mg/kg, 72 h, dose level Control, time 3 day
[2] = 0 mg/kg, […], dose level Control, time 7 day
[3] = 0 mg/kg, […], dose level Control, time 14 day
[4] = 0 mg/kg, […], dose level Control, time 28 day
[5] = 300 mg/kg, 72 h, dose level Low, time 3 day
[6] = 300 mg/kg, […], dose level Low, time 7 day
[7] = 300 mg/kg, […], dose level Low, time 14 day
[8] = 300 mg/kg, […], dose level Low, time 28 day

## CC(=O)OCC1=C(C(=O)O)N2C(=O)[C@@H](NC(=O)Cc3cccs3)[C@H]2SC1 [CEPHALOTHIN]
[1]
  TERMINAL_BW: 230.4 g
  APTT: 21.2 s
  Bas: 0%
  Eos: 0.8%
  Fbg: 292.4 mg/dL
  Hb: 13.4 g/dL
  Ht: 38.5%
  Lym: 82%
  MCH: 21.2 pg
  MCHC: 34.9%
  MCV: 60.8 fL
  Mono: 3.4%
  Neu: 13%
  PT: 16.1 s
  Plat: 120.3 x10_4/uL
  RBC: 633 x10_4/ul
  Ret: 6.8%
  WBC: 100.4 x10_2/uL
  KIDNEY_L: 1 g
  KIDNEY_R: 1 g
  KIDNEY_TOTAL: 2 g
  LIVER: 10.5 g
  ALP: 1655.6 IU/L
  ALT: 38.8 IU/L
  AST: 69.2 IU/L
  BUN: 18 mg/dL
  CRE: 0.2 mg/dL
  Ca: 10.8 mg/dL
  Cl: 105.4 meq/L
  DBIL: 0 mg/dL
  GLC: 185.8 mg/dL
  IP: 6.9 mg/dL
  K: 4.6 meq/L
  LDH: 153.6 IU/L
  Na: 140.8 meq/L
  PL: 147.2 mg/dL
  RALB: 3 g/dL
  TBIL: 0.002 mg/dL
  TC: 79.2 mg/dL
  TG: 108.4 mg/dL
  TP: 5.3 g/dL
  gamma-GTP: 1.6 IU/L
[2]
  TERMINAL_BW: 261.3 g
  APTT: 22.6 s
  Bas: 0%
  Eos: 0.8%
  Fbg: 303 mg/dL
  Hb: 13.2 g/dL
  Ht: 37.9%
  Lym: 78.6%
  MCH: 20.5 pg
  MCHC: 34.8%
  MCV: 59 fL
  Mono: 2.2%
  Neu: 17.8%
  PT: 17 s
  Plat: 139.9 x10_4/uL
  RBC: 642.6 x10_4/ul
  Ret: 5.7%
  WBC: 107.7 x10_2/uL
  KIDNEY_L: 1 g
  KIDNEY_R: 1.1 g
  KIDNEY_TOTAL: 2.1 g
  LIVER: 11.4 g
  ALP: 1413.8 IU/L
  ALT: 35 IU/L
  AST: 71.2 IU/L
  BUN: 18.6 mg/dL
  CRE: 0.2 mg/dL
  Ca: 10.7 mg/dL
  Cl: 107 meq/L
  DBIL: 0 mg/dL
  GLC: 182 mg/dL
  IP: 7 mg/dL
  K: 4.4 meq/L
  LDH: 177.6 IU/L
  Na: 142 meq/L
  PL: 121.8 mg/dL
  RALB: 2.9 g/dL
  TBIL: 0.004 mg/dL
  TC: 64.8 mg/dL
  TG: 87.6 mg/dL
  TP: 5.3 g/dL
  gamma-GTP: 1.8 IU/L
[3]
  TERMINAL_BW: 318.6 g
  APTT: 23.5 s
  Bas: 0%
  Eos: 1%
  Fbg: 268.2 mg/dL
  Hb: 14.2 g/dL
  Ht: 39.3%
  Lym: 76.4%
  MCH: 20.3 pg
  MCHC: 36.1%
  MCV: 56.2 fL
  Mono: 3%
  Neu: 18.8%
  PT: 16.1 s
  Plat: 126.1 x10_4/uL
  RBC: 698.6 x10_4/ul
  Ret: 4.8%
  WBC: 110.4 x10_2/uL
  KIDNEY_L: 1.2 g
  KIDNEY_R: 1.3 g
  KIDNEY_TOTAL: 2.5 g
  LIVER: 12.9 g
  ALP: 1425 IU/L
  ALT: 34.4 IU/L
  AST: 63.4 IU/L
  BUN: 16.8 mg/dL
  CRE: 0.2 mg/dL
  Ca: 10.9 mg/dL
  Cl: 104.4 meq/L
  DBIL: 0 mg/dL
  GLC: 185.8 mg/dL
  IP: 6.9 mg/dL
  K: 4.4 meq/L
  LDH: 119.2 IU/L
  Na: 141.4 meq/L
  PL: 138 mg/dL
  RALB: 3.1 g/dL
  TBIL: 0.01 mg/dL
  TC: 67.8 mg/dL
  TG: 96.8 mg/dL
  TP: 5.8 g/dL
  gamma-GTP: 3.2 IU/L
[4]
  TERMINAL_BW: 376.6 g
  APTT: 26.5 s
  Bas: 0%
  Eos: 1%
  Fbg: 291.4 mg/dL
  Hb: 15.6 g/dL
  Ht: 42.3%
  Lym: 83.6%
  MCH: 19.8 pg
  MCHC: 36.9%
  MCV: 53.6 fL
  Mono: 2.6%
  Neu: 12%
  PT: 16.3 s
  Plat: 108 x10_4/uL
  RBC: 789.2 x10_4/ul
  Ret: 2.4%
  WBC: 108.4 x10_2/uL
  KIDNEY_L: 1.3 g
  KIDNEY_R: 1.3 g
  KIDNEY_TOTAL: 2.5 g
  LIVER: 14.2 g
  ALP: 967 IU/L
  ALT: 31.8 IU/L
  AST: 64.2 IU/L
  BUN: 18.2 mg/dL
  CRE: 0.2 mg/dL
  Ca: 10.4 mg/dL
  Cl: 105.4 meq/L
  DBIL: 0 mg/dL
  GLC: 188.6 mg/dL
  IP: 5.9 mg/dL
  K: 4.3 meq/L
  LDH: 181.6 IU/L
  Na: 142.6 meq/L
  PL: 134.8 mg/dL
  RALB: 3.1 g/dL
  TBIL: 0.004 mg/dL
  TC: 64 mg/dL
  TG: 131 mg/dL
  TP: 6.1 g/dL
  gamma-GTP: 1 IU/L
[5]
  TERMINAL_BW: 226.8 g
  APTT: 22.4 s
  Bas: 0%
  Eos: 1.2%
  Fbg: 291.2 mg/dL
  Hb: 13.4 g/dL
  Ht: 38.4%
  Lym: 84.4%
  MCH: 21.1 pg
  MCHC: 35%
  MCV: 60.2 fL
  Mono: 2.8%
  Neu: 10.6%
  PT: 16.2 s
  Plat: 131.5 x10_4/uL
  RBC: 636.8 x10_4/ul
  Ret: 6%
  WBC: 103.7 x10_2/uL
  KIDNEY_L: 1 g
  KIDNEY_R: 1 g
  KIDNEY_TOTAL: 1.9 g
  LIVER: 10.3 g
  ALP: 1513.6 IU/L
  ALT: 37.8 IU/L
  AST: 68.2 IU/L
  BUN: 15.6 mg/dL
  CRE: 0.1 mg/dL
  Ca: 10.7 mg/dL
  Cl: 106 meq/L
  DBIL: 0 mg/dL
  GLC: 175.4 mg/dL
  IP: 6.1 mg/dL
  K: 4.6 meq/L
  LDH: 166 IU/L
  Na: 140.4 meq/L
  PL: 140 mg/dL
  RALB: 3.1 g/dL
  TBIL: 0.008 mg/dL
  TC: 75.8 mg/dL
  TG: 106.4 mg/dL
  TP: 5.5 g/dL
  gamma-GTP: 1.6 IU/L
[6]
  TERMINAL_BW: 260.2 g
  APTT: 22.5 s
  Bas: 0%
  Eos: 0.8%
  Fbg: 310 mg/dL
  Hb: 13.5 g/dL
  Ht: 38.9%
  Lym: 88.8%
  MCH: 20.8 pg
  MCHC: 34.6%
  MCV: 60.2 fL
  Mono: 1.6%
  Neu: 7.8%
  PT: 16.7 s
  Plat: 122.1 x10_4/uL
  RBC: 647 x10_4/ul
  Ret: 5.6%
  WBC: 91 x10_2/uL
  KIDNEY_L: 1.1 g
  KIDNEY_R: 1.1 g
  KIDNEY_TOTAL: 2.1 g
  LIVER: 11.8 g
  ALP: 1472.6 IU/L
  ALT: 34.4 IU/L
  AST: 68.2 IU/L
  BUN: 17.8 mg/dL
  CRE: 0.2 mg/dL
  Ca: 10.6 mg/dL
  Cl: 106.2 meq/L
  DBIL: 0 mg/dL
  GLC: 174.4 mg/dL
  IP: 7 mg/dL
  K: 4.4 meq/L
  LDH: 178.2 IU/L
  Na: 141.4 meq/L
  PL: 144.6 mg/dL
  RALB: 3 g/dL
  TBIL: 0.004 mg/dL
  TC: 71.2 mg/dL
  TG: 146.8 mg/dL
  TP: 5.5 g/dL
  gamma-GTP: 1.6 IU/L
[7]
  TERMINAL_BW: 304.3 g
  APTT: 24.3 s
  Bas: 0%
  Eos: 1%
  Fbg: 257.6 mg/dL
  Hb: 14.4 g/dL
  Ht: 40.4%
  Lym: 89.8%
  MCH: 20.7 pg
  MCHC: 35.6%
  MCV: 58.2 fL
  Mono: 1.8%
  Neu: 6.8%
  PT: 16.1 s
  Plat: 121.1 x10_4/uL
  RBC: 694 x10_4/ul
  Ret: 4.7%
  WBC: 103.2 x10_2/uL
  KIDNEY_L: 1.2 g
  KIDNEY_R: 1.3 g
  KIDNEY_TOTAL: 2.5 g
  LIVER: 12.3 g
  ALP: 1293.4 IU/L
  ALT: 29.6 IU/L
  AST: 57.8 IU/L
  BUN: 16.8 mg/dL
  CRE: 0.2 mg/dL
  Ca: 10.9 mg/dL
  Cl: 106.2 meq/L
  DBIL: 0 mg/dL
  GLC: 179.4 mg/dL
  IP: 6.9 mg/dL
  K: 4.2 meq/L
  LDH: 109.2 IU/L
  Na: 142.2 meq/L
  PL: 142.6 mg/dL
  RALB: 3.1 g/dL
  TBIL: 0.01 mg/dL
  TC: 75 mg/dL
  TG: 103.4 mg/dL
  TP: 5.7 g/dL
  gamma-GTP: 2 IU/L
[8]
  TERMINAL_BW: 378.7 g
  APTT: 25.4 s
  Bas: 0%
  Eos: 1.6%
  Fbg: 293.8 mg/dL
  Hb: 15.4 g/dL
  Ht: 42.1%
  Lym: 87.4%
  MCH: 19.1 pg
  MCHC: 36.6%
  MCV: 52.3 fL
  Mono: 2.4%
  Neu: 8.2%
  PT: 16.2 s
  Plat: 107.1 x10_4/uL
  RBC: 805.4 x10_4/ul
  Ret: 2.3%
  WBC: 92.3 x10_2/uL
  KIDNEY_L: 1.4 g
  KIDNEY_R: 1.4 g
  KIDNEY_TOTAL: 2.8 g
  LIVER: 14.2 g
  ALP: 1007.4 IU/L
  ALT: 30.4 IU/L
  AST: 58.8 IU/L
  BUN: 16.6 mg/dL
  CRE: 0.2 mg/dL
  Ca: 10.5 mg/dL
  Cl: 106.8 meq/L
  DBIL: 0.004 mg/dL
  GLC: 168.4 mg/dL
  IP: 5.6 mg/dL
  K: 4.1 meq/L
  LDH: 158 IU/L
  Na: 143.2 meq/L
  PL: 134.2 mg/dL
  RALB: 3.1 g/dL
  TBIL: 0.006 mg/dL
  TC: 65.6 mg/dL
  TG: 141.2 mg/dL
  TP: 5.9 g/dL
  gamma-GTP: 1 IU/L
